Measurements reported in ChEMBL document CHEMBL1130385, “Synthesis and biological activities of conformationally restricted, tricyclic nonclassical antifolates as inhibitors of dihydrofolate reductases” (J Med Chem, 1997).

Columns and labels:
[1] = target: T1, Bifunctional dihydrofolate reductase-thymidylate synthase (Toxoplasma gondii, UniProt Q07422); test: Inhibitory concentration against Toxoplasma gondii Dihydrofolate reductase
T1 sequence (Q07422 whole entry): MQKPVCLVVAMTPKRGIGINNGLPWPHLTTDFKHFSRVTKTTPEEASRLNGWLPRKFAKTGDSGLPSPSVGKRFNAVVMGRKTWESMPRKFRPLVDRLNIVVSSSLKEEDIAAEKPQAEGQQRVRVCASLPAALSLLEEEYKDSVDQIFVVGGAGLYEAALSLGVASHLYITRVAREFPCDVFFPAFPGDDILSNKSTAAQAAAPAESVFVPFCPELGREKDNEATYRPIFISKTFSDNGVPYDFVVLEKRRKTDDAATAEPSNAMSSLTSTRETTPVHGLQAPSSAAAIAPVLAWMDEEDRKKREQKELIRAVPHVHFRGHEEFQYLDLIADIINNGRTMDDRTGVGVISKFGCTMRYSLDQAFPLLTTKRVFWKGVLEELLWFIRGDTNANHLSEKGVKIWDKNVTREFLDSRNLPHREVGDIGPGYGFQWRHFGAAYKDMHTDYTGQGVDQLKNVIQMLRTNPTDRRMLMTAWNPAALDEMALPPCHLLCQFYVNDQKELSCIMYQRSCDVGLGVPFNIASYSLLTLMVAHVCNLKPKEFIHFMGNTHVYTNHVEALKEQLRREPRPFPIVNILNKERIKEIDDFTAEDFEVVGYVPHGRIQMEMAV

Dihydrofolate reductase [2] = target: T2, Dihydrofolate reductase (Rattus norvegicus, UniProt Q920D2)
T2 sequence (Q920D2 whole entry): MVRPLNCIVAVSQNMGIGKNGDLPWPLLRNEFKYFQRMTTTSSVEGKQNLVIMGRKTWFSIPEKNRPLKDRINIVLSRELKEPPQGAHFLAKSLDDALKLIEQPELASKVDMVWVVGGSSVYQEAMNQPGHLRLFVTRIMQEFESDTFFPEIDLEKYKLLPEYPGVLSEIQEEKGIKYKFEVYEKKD
Description: Inhibitory concentration against Rat liver Dihydrofolate reductase

Dihydrofolate reductase [3] = target: T3, Dihydrofolate reductase (Pneumocystis carinii, UniProt P16184)
T3 sequence (P16184 whole entry): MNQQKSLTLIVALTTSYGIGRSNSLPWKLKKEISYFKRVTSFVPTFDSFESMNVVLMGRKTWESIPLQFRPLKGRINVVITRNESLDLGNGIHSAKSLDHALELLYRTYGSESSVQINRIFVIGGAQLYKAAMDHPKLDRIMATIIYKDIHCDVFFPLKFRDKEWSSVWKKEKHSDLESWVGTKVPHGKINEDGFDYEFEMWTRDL
Description: Inhibitory concentration against Pneumocystis carinii Dihydrofolate reductase

IC50 (Dihydrofolate reductase [3]) [nM]	SMILES	IC50 [1] [nM]	IC50 (Dihydrofolate reductase [2]) [nM]
–	COc1cc(N2C=C3C(=O)N=c4nc(N)nc(N)c4=C3CC2)cc(OC)c1OC	1120	240
–	COc1cc(N2CCC3c4c(N)nc(N)nc4NCC3C2)cc(OC)c1OC (centres undefined)	290	160
–	COc1c(Cl)c(-n2ccc3c4c(N)nc(N)nc4nc(=O)c-3c2)c(Cl)c(OC)c1OC	–	500
> 2270	COc1cc(N2CCc3c(cnc4nc(N)nc(N)c34)C2)cc(OC)c1OC	–	> 2700
–	COc1cc(N2C=Cc3c(cnc4nc(N)nc(N)c34)C2)cc(OC)c1OC	760	470
> 5000	COc1cc(N2CCc3c(c(=O)[nH]c4nc(N)nc(N)c34)C2)cc(OC)c1OC	–	> 5000

SMILES	IC50 (Dihydrofolate reductase [3]) [nM]	IC50 [1] [nM]	IC50 (Dihydrofolate reductase [2]) [nM]
COc1cc(-n2ccc3c4c(N)nc(N)nc4nc(=O)c-3c2)cc(OC)c1OC	2400	520	86
